Data: article PMC3985444 (Journal of Chemical Information and Modeling, 2014)

What was measured:
[1] = test system: dopamine receptors; conditions: cited from earlier work
[2] = biological target: T1, human 5-HT1A receptor (Homo sapiens, UniProt P08908); test: Radioligand competition binding assay
T1 sequence (P08908 1-422): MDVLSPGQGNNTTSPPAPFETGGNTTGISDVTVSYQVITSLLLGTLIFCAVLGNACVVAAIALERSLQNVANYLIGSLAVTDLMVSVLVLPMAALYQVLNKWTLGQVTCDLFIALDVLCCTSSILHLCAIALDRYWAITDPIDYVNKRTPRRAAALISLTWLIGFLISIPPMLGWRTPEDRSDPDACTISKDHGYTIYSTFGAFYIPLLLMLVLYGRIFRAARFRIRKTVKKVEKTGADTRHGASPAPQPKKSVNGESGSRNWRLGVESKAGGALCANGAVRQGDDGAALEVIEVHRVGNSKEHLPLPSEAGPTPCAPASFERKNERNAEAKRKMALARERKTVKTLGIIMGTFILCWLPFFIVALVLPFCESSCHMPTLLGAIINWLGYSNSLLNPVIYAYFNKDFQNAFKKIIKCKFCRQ

[3] = test system: 5-HT2A; conditions: cited from earlier work
[4] = test system: 5-HT1B; conditions: cited from earlier work
[5] = test system: 5-HT1D; conditions: cited from earlier work

Row | Compound | binding with dopamine receptors [1] | Ki [2] [nM] | binding with 5-HT2A [3] | binding to 5-HT1B [4] | binding to 5-HT1D [5]
1 | CN1CCCCC1CCN1c2ccccc2Sc2ccc([S+](C)[O-])cc21 (stereo not shown) [Mesoridazine] | potent binding | 33.1 | potent binding |  | 
2 | CC[C@@H](CO)NC(=O)[C@@H]1C=C2c3cccc4c3c(cn4C)C[C@H]2N(C)C1 [Methysergide] |  | 26 |  |  | 
3 | CN1C[C@@H](CO)C=C2c3cccc4[nH]cc(c34)C[C@H]21 [ST057540, [(8α)-6-methyl-9,10-didehydroergolin-8-yl]methanol] |  | 2.3 |  | high-affinity binding | high-affinity binding
